This note sets out measurements from patent US20240247031A1, “COMPOSITION FOR TREATING CANCER CONTAINING TELOMERASE-TARGETING GNRH ANTAGONIST-DERIVED PEPTIDE HS1002” (Research & Business Foundation Sungkyunkwan University, priority 2023, published 2024).

Experiment [1] deals with c-Myc. Nature of the experiment: c-Myc protein expression and transcriptional activity in LNCaP (FIG. 12). Format: cell-based, human. To be noted: 300 μM, 72 h. How it is done:
The cells and tumor tissues were homogenized using the PRO-PREP™ extraction solution (iNtRON Biotechnology, Seongnam, Korea). After incubation, the homogenate was centrifuged at 16,000×g for 20 min at 4° C., and the supernatant was collected for western blot analysis. Subsequently, an equivalent quantity of protein was separated using sodium dodecyl sulfate polyacrylamide gels and transferred onto a polyvinylidene difluoride (PVDF) membrane. The PVDF membranes were incubated with the primary antibodies overnight at 4° C., washed with tris-buffered saline, and then incubated with HRP-conjugated anti-mouse or anti-rabbit antibodies. The bands were visualized using a ChemiDoc imaging system (Bio-Rad, Hercules, CA, USA). The band intensities were determined using an Image J software.
The c-Myc Transcription Factor Assay Kit (Cat. ab207200, abcam) was used to quantify the activation of c-Myc in nuclear extracts after peptide treatment. […] The protein concentration was quantified using the Bradford method (798 μL Bradford, 200 μL water, and 2 μL of the protein) at a wavelength of 595 nm (SmartSpecPlus; BioRad). For the detection of c-Myc transcriptional activity, 5 μg of the isolated nuclear extracts were used, and the absorbance was measured on a spectrophotometer (Synergy HT; BioTek) at OD 450 nm. […]

Experiment [2] relates to Ki-67 and hTERT in LNCaP tumor tissue. Nature of the experiment: Ki-67 immunohistochemistry and hTERT immunoblotting in xenograft tumor tissue (FIG. 18). Format: in vivo, mouse. To be noted: s.c. administration, compared with the control group. As to the method:
Mice were sacrificed, and the excised tumors were fixed in 10% formalin and impregnated with paraffin. For pathological examination, immunohistochemistry was performed by the avidin-biotin complex method using Ki-67 antibodies. The immune response was visualized with a reagent (3,3-diaminobenzidine) and counter-stained with Mayer's hematoxylin. TUNEL assay in tissue was performed using ApopTag Plus Peroxidase in Situ Apoptosis Detection kits (Intergen, Purchase, NY)) according to the manufacturer's indications. In summary, paraffin was removed from slides, and the slides were placed in 3% hydrogen peroxide to inhibit endogenous peroxidase. The slides were incubated in a reaction buffer containing an enzyme (terminal deoxynucleotidyl transferase) at 37° C. for 1 h. The slides were incubated with peroxidase-conjugated anti-digoxigenin antibodies for 30 min, and the reaction product was visualized with a solution containing 2 mmol hydrogen peroxide (0.03% 3,3-diaminobenzidine solution). Counterstaining was performed with 0.5% methyl green. Ki-67- and TUNEL-positive cells were counted and expressed as an average of the five highest areas within a single×200 field. A portion of tumor tissue was homogenized, followed by immunoblotting for hTERT.
A general note: In western blotting, separated proteins are transferred to a membrane and probed.

Take `CCNC(=O)[C@@H]1CCCN1C(=O)[C@@H](NC(=O)[C@H](Cc1ccccc1)NC(=O)[C@H](CCCNC(=N)N)NC(=O)[C@H](CC(C)C)NC(=O)[C@H](CCCNC(=N)N)NC(=O)[C@H](Cc1ccc(O)cc1)NC(=O)[C@H](CO)NC(=O)[C@H](Cc1c[nH]c2ccccc12)NC(=O)[C@H](Cc1c[nH]cn1)NC(=O)[C@@H]1CCC(=O)N1)[C@@H](C)CC` [HS1002]: in experiment [1], the c-Myc protein expression result is reported as “significantly decreased” and the c-Myc transcriptional activity entry is listed as “significantly decreased”. In experiment [2], the “Ki-67 protein expression level in tumor tissues” value is “distinctively reduced” and the “hTERT protein expression level in tumor tissues” value is recorded as “distinctively reduced”.
